Patent US7476741B2, “Substituted 4H-chromens, 2H-chromenes, chromans and analogs as activators of caspases and inducers of apoptosis and the use thereof” (Cytovia, Inc., priority 2002, dated 2009)

How the values were obtained:
[1] = system: ZR-75-1; experiment: Caspase cascade activation assay (N-(Ac-DEVD)-N'-ethoxycarbonyl-R110 fluorogenic substrate) in ZR-75-1 cells; assay type: cell-based; settings: ZR-75-1 human breast cancer cells, 24 h incubation; for EC50: sigmoidal dose-response, read-out: ZR-75-1 EC50 (nM) (potency)
Method: (§1) Human breast cancer cell lines T-47D and ZR-75-1 were grown according to media component mixtures designated by American Type Culture Collection +10% FCS (Invitrogen Corporation), in a 5% CO2−95% humidity incubator at 37° C. T-47D and ZR-75-1 cells were maintained at a cell density between 30 and 80% confluency at a cell density of 0.1 to 0.6×10^6 cells/mL. Cells were harvested at 600×g and resuspended at 0.65×10^6 cells/mL into appropriate media +10% FCS. An aliquot of 45 μL of cells was added to a well of a 96-well microtiter plate containing 5 μL of a 10% DMSO in RPMI-1640 media solution containing 0.16 to 10 μM of 4-(3-bromo-4,5-dimethoxyphenyl)-3-cyano-4H-indolo[4,5-b]pyran (Example 1) or other test compound (0.016 to 1 μM final). An aliquot of 45 μL of cells was added to a well of a 96-well microtiter plate containing 5 μL of a 10% DMSO in RPMI-1640 media solution without test compound as the control sample. The samples were mixed by agitation and then incubated at 37° C. for 24 h in a 5% CO2-95% humidity incubator. After incubation, the samples were removed from the incubator and 50 μL of a solution containing 20 μM of N-(Ac-DEVD)-N′-ethoxycarbonyl-R110 (SEQ ID No.:1) fluorogenic substrate (Cytovia, Inc.; U.S. Pat. No. 6,335,429), 20% sucrose (Sigma), 20 mM DTT (Sigma), 200 mM NaCl (Sigma), 40 mM Na PIPES buffer pH 7.2 (Sigma), and 500 μg/mL lysolecithin (Calbiochem) was added. The samples were mixed by agitation and incubated at room temperature. Using a fluorescent plate reader (Model 1420 Wallac Instruments), an initial reading (T=0) was made approximately 1-2 min after addition of the substrate solution, employing excitation at 485 nm and emission at 530 nm, to determine the background fluorescence of the control sample. After the 3 h incubation, the samples were read for fluorescence as above (T=3 h).
(§2) The Relative Fluorescence Unit values (RFU) were used to calculate the sample readings as follows: RFU(T=3h)−Control RFU(T=0)=Net RFU(T=3h)
(§3) The activity of caspase cascade activation was determined by the ratio of the net RFU value for 4-(3-bromo-4,5-dimethoxyphenyl)-3-cyano-4H-indolo[4,5-b]pyran or other test compound to that of control samples. The EC50 (nM) was determined by a sigmoidal dose-response calculation (Prism 2.0, GraphPad Software Inc.).

[2] = system: T-47D; experiment: Caspase cascade activation assay (N-(Ac-DEVD)-N'-ethoxycarbonyl-R110 fluorogenic substrate) in T-47D cells; assay type: cell-based; settings: T-47D human breast cancer cells, 24 h incubation; ratio of net RFU of compound to control
Method: as §1, §2, §3

EC50 [1] | SMILES | T-47D Ratio (caspase activity) [2] | ZR-75-1 Ratio (caspase activity) ([1]; ratio of net RFU of compound to control)
> 1000 nM | COc1cc(C2CC(OC)Oc3cc(N)ccc32)cc(Br)c1OC (stereo not drawn) |  | 
> 10000 nM | COc1ccc(C2c3ccc(N(C)C)cc3OC(OCCCN)C2Br)cc1OC (stereo not drawn) |  | 
278 nM | COc1cc(C2c3ccc4[nH]ccc4c3OC(=O)C2C#N)cc(Br)c1OC (stereo not drawn) [Example 14, 4-(3-Bromo-4,5-dimethoxyphenyl)-3-cyano-2-oxo-pyrrolo[2,3-h]chroman] | 4.8 | 
379 nM | COc1cc(C2CC(O)Oc3c2ccc2cc[nH]c32)cc(Br)c1OC (stereo not drawn) [Example 30, 4-(3-Bromo-4,5-dimethoxyphenyl)-2-hydroxy-pyrrolo[3,2-h]chroman] | 6.8 | 
> 1000 nM | OC1CC(c2cc(Cl)cc(Cl)c2)c2ccc3cnccc3c2O1 (stereo not drawn) |  | 
> 10000 nM | COc1ccc(C2CC(=O)Oc3cc(OC)c(OC)c(OC)c32)cc1 (stereo not drawn) |  | 
30 nM | COc1cc(C2C(C#N)=COc3cc(N(C)C)ccc32)cc(Br)c1OC (stereo not drawn) [Example 2, 4-(3-Bromo-4,5-dimethoxyphenyl)-3-cyano-7-dimethylamino-4H-chromene] | 5.5 | 
> 1000 nM | OC1CC(c2cc(Cl)cc(Cl)c2)c2ccc3[nH]ccc3c2O1 (stereo not drawn) |  | 
48 nM | COc1cc(C2CC(OC)Oc3c2ccc2c3ccn2C)cc(Br)c1OC (stereo not drawn) [Example 19, 4-(3-Bromo-4,5-dimethoxyphenyl)-2-methoxy-7-methyl-pyrrolo[2,3-h]chroman] | 4.5 | 
67 nM | COc1ccc2c(c1)OC(=O)C(C#N)C2c1cc(OC)c(OC)c(OC)c1 (stereo not drawn) [Example 13, 3-Cyano-7-methoxy-2-oxo-4-(3,4,5-trimethoxyphenyl)-chroman] | 4.3 | 
344 nM | COc1cc(C2CC(O)Oc3c2ccc2cccnc32)cc(Br)c1OC (stereo not drawn) [Example 28, 4-(3-Bromo-4,5-dimethoxyphenyl)-2-hydroxy-pyrido[3,2-h]chroman] | 6.5 | 
4 nM | COc1cc(C2CC(O)Oc3c2ccc2c3ccn2C)cc(OC)c1OC (stereo not drawn) [Example 25, 2-Hydroxy-7-methyl-4-(3,4,5-trimethoxyphenyl)-pyrrolo[2,3-h]chroman] | 10.1 | 
32 nM | COc1cc(C2C(C#N)=COc3c2ccc2[nH]ccc32)cc(Br)c1OC (stereo not drawn) [Example 1, 4-(3-Bromo-4,5-dimethoxyphenyl)-3-cyano-4H-indolo[4,5-b]pyran] | 7.3 | 
> 1000 nM | COc1cc(C2CC(O)Oc3c2ccc2cnccc32)cc(Br)c1OC (stereo not drawn) [Example 26, 4-(3-Bromo-4,5-dimethoxyphenyl)-2-hydroxy-pyrido[3,4-h]chroman] | 1.1 | 
210 nM | COc1ccc2c(c1)OC=C(C#N)C2c1cc(OC)c(OC)c(OC)c1 (stereo not drawn) [Example 8, 3-Cyano-7-methoxy-4-(3,4,5-trimethoxyphenyl)-4H-chromene] | 6.7 | 
7.8 nM | COc1cc(C2CC(O)Oc3c2ccc2c3ccn2C)cc(Br)c1OC (stereo not drawn) [Example 18, 4-(3-Bromo-4,5-dimethoxyphenyl)-2-hydroxy-7-methyl-pyrrolo[2,3-h]chroman] | 6.0 | 
15 nM | COc1cc(C2CC(O)Oc3cc(N(C)C)ccc32)cc(Br)c1OC (stereo not drawn) [Example 15, 4-(3-Bromo-4,5-dimethoxyphenyl)-7-dimethylamino-2-hydroxy-chroman] | 14.6 | 
> 10000 nM | COc1cc(C2CCOc3cc(N(C)C)ccc32)cc(Br)c1OC (stereo not drawn) |  | 

EC50 [1] | SMILES | T-47D Ratio (caspase activity) [2] | ZR-75-1 Ratio (caspase activity) ([1]; ratio of net RFU of compound to control)
48 nM | COc1cc(C2CCOc3c2ccc2c3ccn2C)cc(Br)c1OC (stereo not drawn) [Example 22, 4-(3-Bromo-4,5-dimethoxyphenyl)-7-methyl-pyrrolo[2,3-h]chroman] | 6.5 | 
55 nM | COc1cc(C2CC(O)Oc3c2ccc2[nH]ccc32)cc(Br)c1OC (stereo not drawn) [Example 24, 4-(3-Bromo-4,5-dimethoxyphenyl)-2-hydroxy-pyrrolo[2,3-h]chroman] | 2.5 | 
23 nM | COc1ccc2c(c1)OC(O)CC2c1cc(OC)c(OC)c(OC)c1 (stereo not drawn) [Example 23, 7-Methoxy-2-hydroxy-4-(3,4,5-trimethoxyphenyl)-chroman] | 6.0 | 
360 nM | COc1cc(C2CC(O)Oc3c2ccc2[nH]c(=O)[nH]c32)cc(Br)c1OC (stereo not drawn) [Example 29, 4-(3-Bromo-4,5-dimethoxyphenyl)-7,9-dihydro-2-hydroxy-8-oxo-imidazolo[4,5-h]chroman] | 6.0 | 
14 nM | COc1cc(C2C(C#N)=COc3c2ccc2c3oc(=O)n2C)cc(Br)c1OC (stereo not drawn) [Example 7] | 6.7 | 
2.2 nM | COc1cc(C2C(C#N)=COc3c2ccc2c3ccn2C)cc(Br)c1OC (stereo not drawn) [Example 4, 4-(3-Bromo-4,5-dimethoxyphenyl)-3-cyano-7-methyl-4H-indolo[4,5-b]pyran] | 5.9 | 
127 nM | COc1cc(C2CC(=O)Oc3c2ccc2c3ccn2C)cc(Br)c1OC (stereo not drawn) [Example 21, 4-(3-Bromo-4,5-dimethoxyphenyl)-7-methyl-pyrrolo[2,3-h]chroman-2-one] | 6.2 | 
275 nM | COc1cc(C2CC(OC)Oc3cc(N(C)C)ccc32)cc(Br)c1OC (stereo not drawn) [Example 16, 4-(3-Bromo-4,5-dimethoxyphenyl)-7-dimethylamino-2-methoxy-chroman] | 6.8 | 
2940 nM | N#CC1=COc2ccccc2C1c1ccccc1 (stereo not drawn) [Example 6, 3-Cyano-4-phenyl-4H-chromene] | In-active | In-active
3 nM | Cn1ccc2c3c(ccc21)C(c1cncc(Br)c1)C(C#N)=CO3 (stereo not drawn) [Example 3, 4-(5-Bromo-pyridin-3-yl)-3-cyano-7-methyl-4H-indolo[4,5-b]pyran] | 5.1 | 
2650 nM | COc1ccc(C2CC(=O)Oc3c2cc(OC)c(OC)c3OC)cc1 (stereo not drawn) | 5.7 | 
573 nM | COc1ccc2c(c1)OC(=O)CC2c1cc(OC)c(OC)c(OC)c1 (stereo not drawn) [Example 31, 7-Methoxy-4-(3,4,5-trimethoxyphenyl)-chroman-2-one] | 1.3 | 
> 10000 nM | COC1CC(c2cc(Cl)cc(Cl)c2)c2ccc(N)cc2O1 (stereo not drawn) | 1.2 | 
> 10000 nM | COc1cccc(C2=C(Br)C(C)(C)Oc3cc(OC)ccc32)c1 |  | 
> 10000 nM | COc1cccc(C2=CC(C)(C)Oc3cc(OC)ccc32)c1 |  | 
> 10000 nM | CC(=O)Nc1ccc2c(c1)OC(O)CC2c1cc(Cl)cc(Cl)c1 (stereo not drawn) |  | 
> 1000 nM | COc1ccc(C2CC(=O)Oc3cc(OC)c(OC)c(OC)c32)cc1OC (stereo not drawn) |  | 
> 1000 nM | COc1ccc2c(c1)OC(OCCN)CC2c1cc(OC)c(OC)c(OC)c1 (stereo not drawn) |  | 

SMILES | EC50 [1] | T-47D Ratio (caspase activity) [2] | ZR-75-1 Ratio (caspase activity) ([1]; ratio of net RFU of compound to control)
COc1cc(C2CC(OC(C)=O)Oc3cc(N(C)C)ccc32)cc(Br)c1OC (stereo not drawn) [Example 17, 2-Acetoxy-4-(3-bromo-4,5-dimethoxyphenyl)-7-dimethylamino-chroman] | 29 nM | 5.2 | 
COc1cc(C2=CCOc3cc(N(C)C)ccc32)cc(OC)c1OC [Example 9, 7-Dimethylamino-4-(3,4,5-trimethoxyphenyl)-2H-chromene] | 177 nM | 7.8 | 
